Data as given in patent US10494368B2, “Pesticidally active tetracyclic derivatives with sulfur containing substituents” (Syngenta Participations AG, priority 2015, dated 2019).

Assays:
Type in all cases: in vivo
[1] = tested on: Diabrotica Balteata (Corn Root Worm); assay: Diabrotica balteata on maize sprouts, spray; conditions: 96 h, application rate 200 ppm, L2 larvae on maize sprouts, 4 days after infestation, read-out: effect in at least one of the two categories (mortality or growth inhibition)
Method: Maize sprouts placed onto an agar layer in 24-well microtiter plates were treated with aqueous test solutions prepared from 10′000 ppm DMSO stock solutions by spraying. After drying, the plates were infested with L2 larvae (6 to 10 per well). The samples were assessed for mortality and growth inhibition in comparison to untreated samples 4 days after infestation.
(§1) The following compounds gave an effect of at least 80% in at least one of the two categories (mortality or growth inhibition) at an application rate of 200 ppm: […]

[2] = tested on: Myzus persicae (Green Peach Aphid); assay: Myzus persicae feeding/contact activity on sunflower leaf discs; conditions: foliar, 144 h, application rate 200 ppm, aphid population of mixed ages on sunflower leaf discs, 6 days after infestation
Method: Feeding/Contact activity Sunflower leaf discs were placed onto agar in a 24-well microtiter plate and sprayed with aqueous test solutions prepared from 10′000 ppm DMSO stock solutions. After drying, the leaf discs were infested with an aphid population of mixed ages. The samples were assessed for mortality 6 days after infestation.

[3] = tested on: Spodoptera littoralis (Egyptian Cotton Leaf Worm); assay: Spodoptera littoralis on cotton leaf discs, spray; conditions: foliar, 72 h, application rate 200 ppm, L1 larvae on cotton leaf discs, 3 days after infestation
Method: Cotton leaf discs were placed onto agar in 24-well microtiter plates and sprayed with aqueous test solutions prepared from 10′000 ppm DMSO stock solutions. After drying the leaf discs were infested with five L1 larvae. The samples were assessed for mortality, anti-feeding effect, and growth inhibition in comparison to untreated samples 3 days after infestation. Control of Spodoptera littoralis by a test sample is given when at least one of the categories mortality, anti-feedant effect, and growth inhibition is higher than the untreated sample.

[4] = tested on: Plutella xylostella (Diamond Back Moth); assay: Plutella xylostella on artificial diet; conditions: 120 h, application rate 200 ppm, L2 larvae on artificial diet, 5 days after infestation, read-out: effect in at least one of the two categories (mortality or growth inhibition)
Method: 24-well microtiter plates with artificial diet were treated with aqueous test solutions prepared from 10′000 ppm DMSO stock solutions by pipetting. After drying, the plates were infested with L2 larvae (10 to 15 per well). The samples were assessed for mortality and growth inhibition in comparison to untreated samples 5 days after infestation.
as §1

[5] = tested on: Euschistus heros (Neotropical Brown Stink Bug); assay: Euschistus heros on soybean leaves, spray; conditions: 120 h, application rate 200 ppm, N2 nymphs on soybean leaves, 5 days after infestation, read-out: effect in at least one of the two categories (mortality or growth inhibition)
Method: Soybean leaves on agar in 24-well microtiter plates were sprayed with aqueous test solutions prepared from 10′000 ppm DMSO stock solutions. After drying the leaves were infested with N2 nymphs. The samples were assessed for mortality and growth inhibition in comparison to untreated samples 5 days after infestation.
as §1

[6] = tested on: Spodoptera littoralis (Egyptian Cotton Leaf Worm); assay: Spodoptera littoralis, uptake by lettuce roots from agar; conditions: 144 h, test rate 12.5 ppm, compound absorbed by lettuce roots, 6 days after infestation, read-out: effect in at least one of the three categories (mortality, anti-feeding, or growth inhibition)
Text: Test compounds were applied by pipette from 10′000 ppm DMSO stock solutions into 24-well plates and mixed with agar. Lettuce seeds were placed onto the agar and the multi well plate was closed by another plate which contained also agar. After 7 days the compound was absorbed by the roots and the lettuce grew into the lid plate. The lettuce leaves were then cut off into the lid plate. Spodoptera eggs were pipetted through a plastic stencil onto a humid gel blotting paper and the lid plate was closed with it. The samples were assessed for mortality, anti-feedant effect and growth inhibition in comparison to untreated samples 6 days after infestation.
The following compounds gave an effect of at least 80% in at least one of the three categories (mortality, anti-feeding, or growth inhibition) at a test rate of 12.5 ppm: A3, A4, A5, A6, A8, A10, B3, B4, B5 and C2.

[7] = tested on: Aedes aegypti (Yellow Fever Mosquito); assay: Aedes aegypti adult contact test on dried deposits; conditions: application rate 200 ppm in ethanol, adult females, after 48 h and/or 24 h
Method: Test solutions, at an application rate of 200 ppm in ethanol, were applied to 12 well tissue culture plates. Once the deposits were dry, five, two to five day old adult female Aedes aegypti were added to each well, and sustained with a 10% sucrose solution in a cotton wool plug. Assessment of knockdown was made one hour after introduction, and mortality was assessed at 24 and 48 hours after introduction.
The following compounds gave at least 80% control of Aedes aegypti after 48 h and/or 24 h: […]

[8] = tested on: Bemisia tabaci (Cotton White Fly); assay: Bemisia tabaci feeding/contact activity on cotton leaf discs; conditions: foliar, 144 h, application rate 200 ppm, adult white flies on cotton leaf discs, 6 days after incubation
Method: Feeding/contact activity Cotton leaf discs were placed on agar in 24-well microtiter plates and sprayed with aqueous test solutions prepared from 10′000 ppm DMSO stock solutions. After drying the leaf discs were infested with adult white flies. The samples were checked for mortality 6 days after incubation.

CCSc1c(-c2nc3cc(C(F)(F)F)cnc3n2C)sc2ccccc12 [Compound A1, 2-(3-ethylsulfanylbenzothiophen-2-yl)-3-methyl-6-(trifluoromethyl)imidazo[4,5-b]pyridine]
≥ 80%: percent effect (mortality or growth inhibition) at 200 ppm [1] | mortality at 200 ppm [2]

CCS(=O)(=O)c1c(-c2nc3cc(C(F)(F)F)cnc3n2C)sc2ccccc12 [Compound A2, 2-(3-ethylsulfonylbenzothiophen-2-yl)-3-methyl-6-(trifluoromethyl)imidazo [4,5-b] pyridine]
≥ 80%: percent effect (mortality or growth inhibition) at 200 ppm [1] | mortality at 200 ppm [2] | percent control (mortality, anti-feedant effect or growth inhibition) at 200 ppm [3] | percent effect (mortality or growth inhibition) at 200 ppm [4] | percent effect (mortality or growth inhibition) at 200 ppm [5]

CCS(=O)(=O)c1c(-c2nc3cc(SC(F)(F)F)cnc3n2C)sc2cc(Br)ccc12 [Compound A4, 2-(6-bromo-3-ethylsulfonyl-benzothiophen-2-yl)-3-methyl-6-(trifluoromethylsulfanyl)imidazo[4,5-b]pyridine]
≥ 80%: percent effect (mortality, anti-feeding or growth inhibition) at 12.5 ppm [6] | percent effect (mortality or growth inhibition) at 200 ppm [1] | pest or weed control at 200 ppm [7] | mortality at 200 ppm [2] | percent control (mortality, anti-feedant effect or growth inhibition) at 200 ppm [3] | percent effect (mortality or growth inhibition) at 200 ppm [4] | mortality at 200 ppm [8] | percent effect (mortality or growth inhibition) at 200 ppm [5]

CCSc1c(-c2nc3cc(C(F)(F)F)cnc3n2C)sc2cc(C(F)(F)F)ccc12 [Compound A5]
≥ 80%: percent effect (mortality, anti-feeding or growth inhibition) at 12.5 ppm [6] | percent effect (mortality or growth inhibition) at 200 ppm [1] | pest or weed control at 200 ppm [7] | percent control (mortality, anti-feedant effect or growth inhibition) at 200 ppm [3] | percent effect (mortality or growth inhibition) at 200 ppm [4] | percent effect (mortality or growth inhibition) at 200 ppm [5]

CCS(=O)(=O)c1c(-c2nc3cc(C(F)(F)F)cnc3n2C)sc2cc(C(F)(F)F)ccc12 [Compound A6]
≥ 80%: percent effect (mortality, anti-feeding or growth inhibition) at 12.5 ppm [6] | percent effect (mortality or growth inhibition) at 200 ppm [1] | pest or weed control at 200 ppm [7] | mortality at 200 ppm [2] | percent control (mortality, anti-feedant effect or growth inhibition) at 200 ppm [3] | percent effect (mortality or growth inhibition) at 200 ppm [4] | mortality at 200 ppm [8] | percent effect (mortality or growth inhibition) at 200 ppm [5]

CCSc1c(-c2nc3cc(C(F)(F)F)cnc3n2C)sc2cc(Br)ccc12 [Compound A7, 2-(6-bromo-3-ethylsulfanyl-benzothiophen-2-yl)-3-methyl-6-(trifluoromethyl)imidazo[4,5-b]pyridine]
≥ 80%: percent effect (mortality or growth inhibition) at 200 ppm [1] | pest or weed control at 200 ppm [7] | percent control (mortality, anti-feedant effect or growth inhibition) at 200 ppm [3] | percent effect (mortality or growth inhibition) at 200 ppm [4] | percent effect (mortality or growth inhibition) at 200 ppm [5]

CCS(=O)(=O)c1c(-c2nc3cc(C(F)(F)F)cnc3n2C)sc2cc(-n3ccc(C(F)(F)F)n3)ccc12 [Compound A9, 2-[3-ethylsulfonyl-6-[3-(trifluoromethyl)pyrazol-1-yl]benzothiophen-2-yl]-3-methyl-6-(trifluoromethyl)imidazo[4,5-b]pyridine]
≥ 80%: percent effect (mortality or growth inhibition) at 200 ppm [1] | percent control (mortality, anti-feedant effect or growth inhibition) at 200 ppm [3] | percent effect (mortality or growth inhibition) at 200 ppm [4]

CCS(=O)(=O)c1c(-c2nc3cc(C(F)(F)F)cnc3n2C)sc2cc(SC(F)(F)F)ccc12 [Compound A10, 2-[3-ethylsulfonyl-6-(trifluoromethylsulfanyl)benzothiophen-2-yl]-3-methyl-6-(trifluoromethyl)imidazo[4,5-b]pyridine]
≥ 80%: percent effect (mortality, anti-feeding or growth inhibition) at 12.5 ppm [6] | percent effect (mortality or growth inhibition) at 200 ppm [1] | pest or weed control at 200 ppm [7] | mortality at 200 ppm [2] | percent control (mortality, anti-feedant effect or growth inhibition) at 200 ppm [3] | percent effect (mortality or growth inhibition) at 200 ppm [4] | percent effect (mortality or growth inhibition) at 200 ppm [5]

CCS(=O)(=O)c1c(-c2nc3cc(C(F)(F)F)cnc3n2C)sc2cc(C3CC3)ccc12 [Compound A11, 2-(6-cyclopropyl-3-ethylsulfonyl-benzothiophen-2-yl)-3-methyl-6-(trifluoromethyl)imidazo[4,5-b]pyridine]
≥ 80%: percent effect (mortality or growth inhibition) at 200 ppm [1] | mortality at 200 ppm [2] | percent control (mortality, anti-feedant effect or growth inhibition) at 200 ppm [3] | percent effect (mortality or growth inhibition) at 200 ppm [4] | percent effect (mortality or growth inhibition) at 200 ppm [5]

CCS(=O)(=O)c1c(-c2nc3cc(C(F)(F)F)cnc3n2C)sc2cc(C(F)(F)C(F)(F)F)ccc12 [Compound A12]
≥ 80%: percent effect (mortality or growth inhibition) at 200 ppm [1] | pest or weed control at 200 ppm [7] | percent control (mortality, anti-feedant effect or growth inhibition) at 200 ppm [3] | percent effect (mortality or growth inhibition) at 200 ppm [4] | percent effect (mortality or growth inhibition) at 200 ppm [5]

CCS(=O)(=O)c1c(-c2nc3cnc(C(F)(F)F)cc3n2C)sc2ccccc12 [Compound B2, 2-(3-ethylsulfonylbenzothiophen-2-yl)-1-methyl-6-(trifluoromethyl)imidazo[4,5-c]pyridine]
≥ 80%: percent effect (mortality or growth inhibition) at 200 ppm [1] | mortality at 200 ppm [2] | percent control (mortality, anti-feedant effect or growth inhibition) at 200 ppm [3] | percent effect (mortality or growth inhibition) at 200 ppm [4] | percent effect (mortality or growth inhibition) at 200 ppm [5]

CCSc1c(-c2nc3cc(C(F)(F)F)ccc3n2C)sc2cc(C(F)(F)F)ccc12 [Compound C1]
≥ 80%: percent effect (mortality or growth inhibition) at 200 ppm [1] | percent control (mortality, anti-feedant effect or growth inhibition) at 200 ppm [3] | percent effect (mortality or growth inhibition) at 200 ppm [4]

CCS(=O)(=O)c1c(-c2nc3cc(C(F)(F)F)ccc3n2C)sc2cc(C(F)(F)F)ccc12 [Compound C2]
≥ 80%: percent effect (mortality, anti-feeding or growth inhibition) at 12.5 ppm [6] | percent effect (mortality or growth inhibition) at 200 ppm [1] | pest or weed control at 200 ppm [7] | percent control (mortality, anti-feedant effect or growth inhibition) at 200 ppm [3] | percent effect (mortality or growth inhibition) at 200 ppm [4] | mortality at 200 ppm [8]
